Results taken from US20130172320A1, “PYRIDO [4,3-B] INDOLE AND PYRIDO [3,4-B] INDOLE DERIVATIVES AND METHODS OF USE” (priority 2010, published 2013).

Key:
[1] = target: human recombinant serotonin (5-Hydroxytryptamine) 5-HT7 receptor (Homo sapiens, UniProt P34969); assay: Serotonin 5-HT7 radioligand binding ([3H]LSD); details: compound at 0.1 μM; read-out: Percentage inhibition of ligand binding, Serotonin (0.1 μM) 5-HT7
Method: To evaluate in radioligand binding assays the activity of compounds of the invention, human recombinant serotonin (5-Hydroxytryptamine) 5-HT7 receptor expressed in Chinese hamster ovary (CHO) cells (Roth, B. et al, J. Pharmacol. Exp. Ther. 268:1403, 1994; Shen, Y. et al, J. Biol. Chem. 268:18200, 1993) in a modified Tris-HCl buffer (50 mM Tris-HCl, pH 7.4, 10 mM MgCl2, 0.5 mM EDTA) was used. Compounds of invention were incubated with 5.5 nM [^3H] Lysergic acid diethylamide (LSD) for 2 h at 25° C. Non-specific binding was estimated in the presence of 10 μM Serotonin (5-HT). Receptor proteins were filtered and washed, the filters were then counted to determine [^3H]LSD specifically bound. Compounds were screened at 1 μM or lower, using 1% DMSO as vehicle. Biochemical assay results are presented as the percent inhibition of specific binding in Table 4.

[2] = target: T1, human recombinant serotonin (5-Hydroxytryptamine) 5-HT2C receptor (Homo sapiens, UniProt P28335); assay: Serotonin 5-HT2C radioligand binding ([3H]Mesulergine); details: compound at 0.1 μM; read-out: Percentage inhibition of ligand binding, Serotonin (0.1 μM) 5-HT2C
T1 construct: expressed in transfected cells; host or cells: Chinese hamster ovary (CHO) K1 cells
T1 sequence (P28335 33-458): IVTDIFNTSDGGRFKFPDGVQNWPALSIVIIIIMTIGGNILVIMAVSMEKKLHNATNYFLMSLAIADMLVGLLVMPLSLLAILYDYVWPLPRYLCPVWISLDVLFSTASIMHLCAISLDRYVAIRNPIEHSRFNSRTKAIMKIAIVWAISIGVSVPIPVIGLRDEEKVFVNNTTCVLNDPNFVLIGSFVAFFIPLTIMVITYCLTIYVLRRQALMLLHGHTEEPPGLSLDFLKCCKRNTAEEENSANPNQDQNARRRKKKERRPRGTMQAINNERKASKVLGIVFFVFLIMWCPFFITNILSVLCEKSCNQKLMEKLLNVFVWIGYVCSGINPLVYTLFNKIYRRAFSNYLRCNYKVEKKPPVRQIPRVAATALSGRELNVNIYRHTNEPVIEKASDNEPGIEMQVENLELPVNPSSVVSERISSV
Method: To evaluate in radioligand binding assays the activity of compounds of the invention, human recombinant serotonin (5-Hydroxytryptamine) 5-HT2C receptor expressed in Chinese hamster ovary (CHO) K1 cells (Wolf, W. et al, J. Neurochem. 69:1449, 1997) in a modified Tris-HCl buffer (50 mM Tris-HCl, pH 7.4, 0.1% Ascorbic Acid, 10 μM Pargyline) was used. Compounds of the invention were incubated with 1 nM [^3H]Mesulergine for 60 min at 25° C. Non-specific binding was estimated in the presence of 1 μM Mianserin. Receptor proteins were filtered and washed, the filters were then counted to determine [^3H]Mesulergine specifically bound. Compounds were screened at 1 μM or lower, using 1% DMSO as vehicle. Biochemical assay results are presented as the percent inhibition of specific binding in Table 4.

[3] = target: human recombinant histamine H1 receptor (Homo sapiens, UniProt P35367); assay: Histamine H1 radioligand binding ([3H]Pyrilamine); details: compound at 1 μM; 1.2 nM [3H]Pyrilamine; read-out: Binding data (Percentage inhibition) Histamine H1 (1 μM)
Sequence of human recombinant histamine H1 receptor (P35367 whole entry): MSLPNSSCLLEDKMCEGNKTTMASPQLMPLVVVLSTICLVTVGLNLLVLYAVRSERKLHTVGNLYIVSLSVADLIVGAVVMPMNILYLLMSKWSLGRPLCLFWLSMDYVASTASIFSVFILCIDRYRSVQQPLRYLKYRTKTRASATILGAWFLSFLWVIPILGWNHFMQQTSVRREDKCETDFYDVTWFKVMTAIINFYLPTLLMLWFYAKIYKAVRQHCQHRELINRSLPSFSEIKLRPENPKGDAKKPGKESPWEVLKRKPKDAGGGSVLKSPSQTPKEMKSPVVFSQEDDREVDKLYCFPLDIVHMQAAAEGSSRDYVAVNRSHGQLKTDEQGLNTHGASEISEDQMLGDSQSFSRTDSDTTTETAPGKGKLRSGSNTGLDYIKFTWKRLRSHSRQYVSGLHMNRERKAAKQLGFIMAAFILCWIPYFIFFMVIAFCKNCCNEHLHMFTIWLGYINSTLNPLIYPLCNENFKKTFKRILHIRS
Method: To evaluate in radioligand binding assays the activity of compounds of the invention, human recombinant histamine H1 receptor expressed in Chinese hamster ovary (CHO) cells (De Backer, M. et al, Biochem. Biophys. Res. Comm. 197(3):1601, 1993) in a modified Tris-HCl buffer (50 mM Tris-HCl, pH 7.4, 2 mM MgCl2, 100 mM NaCl, 250 mM Sucrose) was used. Compounds of the invention were incubated with 1.2 nM [^3H]Pyrilamine for 180 min at 25° C. Non-specific binding was estimated in the presence of 1 μM Pyrilamine. Receptor proteins were filtered and washed, the filters were then counted to determine [^3H]Pyrilamine specifically bound. Compounds were screened at 1 μM or lower, using 1% DMSO as vehicle. Biochemical assay results are presented as the percent inhibition of specific binding in Table 2.

[4] = target: human recombinant dopamine D2L receptor (Homo sapiens, UniProt P14416); assay: Dopamine D2L radioligand binding ([3H]Spiperone); details: compound at 1 μM; read-out: Percentage inhibition of ligand binding, Dopamine (1 μM) D2L
Sequence of human recombinant dopamine D2L receptor (P14416 whole entry): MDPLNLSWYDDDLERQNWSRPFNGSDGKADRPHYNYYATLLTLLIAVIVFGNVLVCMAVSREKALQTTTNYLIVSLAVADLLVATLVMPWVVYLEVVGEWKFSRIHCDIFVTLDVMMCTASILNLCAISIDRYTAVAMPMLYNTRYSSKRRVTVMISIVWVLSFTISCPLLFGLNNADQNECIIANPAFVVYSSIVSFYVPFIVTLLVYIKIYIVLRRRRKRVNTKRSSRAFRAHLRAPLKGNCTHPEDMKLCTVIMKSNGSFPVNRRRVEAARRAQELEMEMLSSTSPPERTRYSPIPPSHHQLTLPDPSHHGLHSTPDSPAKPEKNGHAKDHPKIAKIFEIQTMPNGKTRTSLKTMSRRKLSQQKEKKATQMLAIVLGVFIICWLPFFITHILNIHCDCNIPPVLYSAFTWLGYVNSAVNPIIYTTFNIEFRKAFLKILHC
Method: To evaluate in radioligand binding assays the activity of compounds of the invention, human recombinant dopamine D2L receptor expressed in Chinese hamster ovary (CHO) cells (Grandy, D. et al, Proc. Natl. Acad. Sci. USA. 86:9762, 1989; Hayes, G. et al, Mol. Endocrinol. 6:920, 1992) in a modified Tris-HCl buffer (50 mM Tris-HCl, pH 7.4, 1.4 mM Ascorbic Acid, 0.001% BSA, 150 mM NaCl) was used. Compounds of the invention were incubated with 0.16 nM [^3H]Spiperone for 120 min at 25° C. Non-specific binding was estimated in the presence of 10 μM Haloperidol. Receptor proteins were filtered and washed, the filters were then counted to determine [^3H]Spiperone specifically bound. Compounds were screened at 1 μM or lower, using 1% DMSO as vehicle. Biochemical assay results are presented as the percent inhibition of specific binding in Table 3.

[5] = target: T2, human recombinant serotonin (5-Hydroxytryptamine) 5-HT2A receptor (Homo sapiens, UniProt P28223); assay: Serotonin 5-HT2A radioligand binding ([3H]Ketanserin); details: compound at 0.1 μM; read-out: Percentage inhibition of ligand binding, Serotonin (0.1 μM) 5-HT2A
T2 construct: expressed in transfected cells; host or cells: Chinese hamster ovary (CHO) K1 cells
T2 sequence (P28223 whole entry): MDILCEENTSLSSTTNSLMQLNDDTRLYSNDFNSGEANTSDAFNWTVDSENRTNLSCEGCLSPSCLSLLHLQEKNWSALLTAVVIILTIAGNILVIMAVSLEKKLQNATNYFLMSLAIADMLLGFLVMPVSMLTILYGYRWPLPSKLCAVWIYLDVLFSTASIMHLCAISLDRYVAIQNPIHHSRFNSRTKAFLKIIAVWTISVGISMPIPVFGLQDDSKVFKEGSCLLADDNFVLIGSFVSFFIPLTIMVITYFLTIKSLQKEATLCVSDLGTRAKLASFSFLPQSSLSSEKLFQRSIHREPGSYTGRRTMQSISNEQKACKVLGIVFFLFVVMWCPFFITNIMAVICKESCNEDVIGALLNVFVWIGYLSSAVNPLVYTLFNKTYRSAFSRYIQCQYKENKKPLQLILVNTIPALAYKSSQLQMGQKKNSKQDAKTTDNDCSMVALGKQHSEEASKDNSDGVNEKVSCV
Method: To evaluate in radioligand binding assays the activity of compounds of the invention, human recombinant serotonin (5-Hydroxytryptamine) 5-HT2A receptor expressed in Chinese hamster ovary (CHO) K1 cells (Bonhaus, D. et al, Br. J. Pharmacol. 115:622, 1995; Saucier, C. et al, J. Neurochem. 68:1998, 1997) in a 50 mM Tris-HCl buffer, pH 7.4, was used. Compounds of the invention were incubated with 0.5 nM [^3H]Ketanserin for 60 min at 25° C. Non-specific binding was estimated in the presence of 1 μM Mianserin. Receptor proteins were filtered and washed, the filters were then counted to determine [^3H]Ketanserin specifically bound. Compounds were screened at 1 μM or lower, using 1% DMSO as vehicle. Biochemical assay results are presented as the percent inhibition of specific binding in Table 4.

[6] = target: T3, human recombinant serotonin (5-Hydroxytryptamine) 5-HT6 receptor (Homo sapiens, UniProt P50406); assay: Serotonin 5-HT6 radioligand binding ([3H]LSD); details: compound at 0.1 μM; read-out: Percentage inhibition of ligand binding, Serotonin (0.1 μM) 5-HT6
T3 construct: expressed in transfected cells; host or cells: human HeLa cells
T3 sequence (P50406 whole entry): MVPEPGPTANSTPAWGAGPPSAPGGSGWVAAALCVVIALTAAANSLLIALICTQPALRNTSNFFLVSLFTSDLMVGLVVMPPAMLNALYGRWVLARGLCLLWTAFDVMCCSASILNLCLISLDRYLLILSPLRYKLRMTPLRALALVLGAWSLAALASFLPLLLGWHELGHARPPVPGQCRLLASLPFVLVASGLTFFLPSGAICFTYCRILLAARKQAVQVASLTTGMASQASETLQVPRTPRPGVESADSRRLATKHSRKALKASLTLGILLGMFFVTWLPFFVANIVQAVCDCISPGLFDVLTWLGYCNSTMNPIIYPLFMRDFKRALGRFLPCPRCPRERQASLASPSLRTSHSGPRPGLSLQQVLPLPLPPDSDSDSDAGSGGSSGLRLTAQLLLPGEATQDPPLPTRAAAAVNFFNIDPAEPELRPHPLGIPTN
Method: To evaluate in radioligand binding assays the activity of compounds of the invention, human recombinant serotonin (5-Hydroxytryptamine) 5-HT6 receptor expressed in human HeLa cells (Monsma, F. Jr. et al, Mol. Pharmacol. 43:320, 1993) in a modified Tris-HCl buffer (50 mM Tris-HCl, pH 7.4, 150 mM NaCl, 2 mM Ascorbic Acid, 0.001% BSA) was used. Compounds of the invention were incubated with 1.5 nM [3H]Lysergic acid diethylamide (LSD) for 120 min at 37° C. Non-specific binding was estimated in the presence of 5 μM Serotonin (5-HT). Receptor proteins were filtered and washed, the filters were then counted to determine [3H]LSD specifically bound. Compounds were screened at 1 μM or lower, using 1% DMSO as vehicle. Biochemical assay results are presented as the percent inhibition of specific binding in Table 4.

Sequence of human recombinant serotonin (5-Hydroxytryptamine) 5-HT7 receptor (P34969 whole entry): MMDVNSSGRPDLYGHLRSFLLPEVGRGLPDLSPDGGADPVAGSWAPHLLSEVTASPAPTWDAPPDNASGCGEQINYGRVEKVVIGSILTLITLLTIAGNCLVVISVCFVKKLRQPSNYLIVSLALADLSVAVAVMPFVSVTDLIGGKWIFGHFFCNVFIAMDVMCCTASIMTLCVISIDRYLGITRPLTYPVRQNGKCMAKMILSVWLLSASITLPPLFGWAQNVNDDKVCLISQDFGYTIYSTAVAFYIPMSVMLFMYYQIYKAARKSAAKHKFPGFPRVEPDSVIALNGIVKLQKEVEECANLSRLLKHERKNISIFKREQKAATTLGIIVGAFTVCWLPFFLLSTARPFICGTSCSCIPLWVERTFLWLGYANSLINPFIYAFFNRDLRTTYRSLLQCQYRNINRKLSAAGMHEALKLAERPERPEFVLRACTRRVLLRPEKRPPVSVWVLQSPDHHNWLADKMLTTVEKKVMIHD

| SMILES | inhibition at 0.1 µM [1] | inhibition at 0.1 µM [2] | inhibition at 1 µM [3] | inhibition at 1 µM [4] | inhibition at 0.1 µM [5] | inhibition at 0.1 µM [6] |
| --- | --- | --- | --- | --- | --- | --- |
| Cc1ccc2[nH]c3c(c2c1)CN(C)CC3(C)CCc1ccccc1 (stereo not drawn) [Compound 43] | -23% | -4% | 93% | 23% | 15% | 9% |
| Cc1ccc2c(c1)c1c(n2C)C(C)(CCc2ccccc2)CN(C)C1 (stereo not drawn) [Compound 44] | 29% | 12% | 101% | 33% | 4% | 17% |
| Cc1ccc2c(c1)c1c(n2C)C(C)(CCc2ccc(C)nc2)CN(C)C1 (stereo not drawn) [Compound 45] | -6% | 6% | 99% | 5% | 1% | -4% |
| Cc1ccc2[nH]c3c(c2c1)CN(C)CC3(C)CCc1ccc(C)nc1 (stereo not drawn) [Compound 46, 2,4,8-Trimethyl-4-[2-(6-methyl-pyridin-3-yl)-ethyl]-2,3,4,5-tetrahydro-1H-pyrido[4,3-b]indole] | -10% | 8% | 34% | 3% | 7% | 6% |
